# Measured values reported in US10124033B2, “Peptides and methods of use” (BAXALTA INCORPORATED, priority 2014, dated 2018).
# Residues, ends and D or L forms follow the SMILES beside them.
# Assays:
# [1] = target: T1, Protein S/APC cofactor activity (Homo sapiens, UniProt P07225); assay: CAT assay: Protein S/APC-dependent thrombin generation in FVIII-inhibited plasma; format: biochemical
# T1 construct: host or cells: plasma
# T1 sequence (P07225 41-676 limits assumed): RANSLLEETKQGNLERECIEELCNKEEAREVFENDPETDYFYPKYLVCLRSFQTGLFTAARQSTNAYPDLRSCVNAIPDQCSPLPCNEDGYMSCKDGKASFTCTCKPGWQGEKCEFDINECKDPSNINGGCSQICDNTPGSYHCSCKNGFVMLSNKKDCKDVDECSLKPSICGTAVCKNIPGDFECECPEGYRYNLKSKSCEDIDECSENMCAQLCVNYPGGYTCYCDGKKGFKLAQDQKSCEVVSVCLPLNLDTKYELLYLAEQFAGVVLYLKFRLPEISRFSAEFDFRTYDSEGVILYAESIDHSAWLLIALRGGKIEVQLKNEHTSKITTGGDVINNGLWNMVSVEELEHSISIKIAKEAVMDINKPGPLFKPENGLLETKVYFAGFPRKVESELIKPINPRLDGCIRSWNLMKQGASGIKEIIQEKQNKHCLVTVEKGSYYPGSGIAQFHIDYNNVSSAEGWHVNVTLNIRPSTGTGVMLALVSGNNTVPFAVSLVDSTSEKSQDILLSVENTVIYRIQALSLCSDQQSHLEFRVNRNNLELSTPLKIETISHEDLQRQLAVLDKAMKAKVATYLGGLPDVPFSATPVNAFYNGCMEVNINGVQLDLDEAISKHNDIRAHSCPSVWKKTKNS
# Protocol: Peptides also were tested for improvement of Protein S/APC-dependent thrombin generation in hemophilic plasma using a CAT assay. Protein S enhances the anticoagulation of APC in plasma. The CAT assay quantifies the effect of Protein S on APC-mediated thrombin generation initiated via the extrinsic coagulation pathway (Nicolaes, Blood Coagul. Fibrinolysis, 8:28 (1997)). APC (35 nM) and Protein S (25 nM) was added to Protein 5-depleted plasma, and plasma samples were incubated with high titer heat inactivated anti-human FVIII plasma raised in goat (4490 BU/ml; Baxter BioScience, Vienna, Austria; 50 BU/ml final plasma concentration). Thrombin formation in plasma was followed by calibrated automated thrombography (CAT) in a Fluoroskan Ascent® reader (Thermo Labsystems, Helsinki, Finland) and quantified via the thrombin peak-height. Thrombin generation was determined at high tissue factor (TF) concentration in the absence and in the presence of APC at a concentration that reduces the peak height to ˜20%. The inhibitory effect of peptides described herein on the APC cofactor activity of Protein S (PS) in plasma was measured in FVIII-inhibited pooled normal plasma supplemented with APC. Complete (100%) Protein S/APC inhibition is the height of the thrombin peak without addition of APC. Lack of (0%) PS/APC inhibition correlates to the thrombin peak-height value with a certain amount of APC. Peptides were ranked by their normalized values in comparison to the mean of wild-type controls including SD at two defined peptide concentrations (EC50 and EC90).
# Exemplary conditions for the CAT assay are as follows. Protein S-depleted plasma was supplemented with 35 nM APC and […]. Stock APC was diluted with 10 pM TF and 15 μM PL. Lyophilized peptides were dissolved in 100% DMSO to a 5 mM stock concentration and further diluted with HNABSA5-buffer+0.1% Tween80. […] In a 96 well Immulon 2HB (transparent), U-bottom (ThermoElectron) plate was mixed 80 μl plasma (+CTI+Z994-5), 10 μl peptide dilution, and 10 μl APC-TF-PL-MIX or Calibrator. Thrombin generation was initiated by dispensing 20 μL of FluCa reagent containing fluorogenic substrate and HEPES-buffered CaCl2 (100 mM) into each well. Fluorescence intensity was recorded at 37° C. using the Fluoroskan Ascent® reader (filters 390 nm excitation and 460 nm emission). The parameters of the resulting thrombin generation curves were calculated using the Thrombinoscope™ software (Thrombinoscope) and thrombin calibrator to correct for inner filter and substrate consumption effects (Hemker, Pathophysiol Haemost Thromb, 33: 415 (2003)).
# [2] = target: T2, C4BP/PS complex (Homo sapiens, UniProt P07225); assay: LANCE IC50 assay on preformed C4BP/PS complex; format: binding
# T2 sequence (P07225 41-676 limits assumed): T1 sequence (P07225 41-676 limits assumed)
# Protocol: To investigate the effect of the peptides described herein on PS/C4BP complexes, a LANCE IC50 assay was established using methods similar to those described above. JBS2572 or JBS3216 was added to a preformed C4BP/PS complex. Changes in the complex concentration were followed by recording the TR-FRET signal. For both peptides, a time- and concentration-dependent dissociation of the C4BP/PS complex was observed. The IC50 of JBS3216 was 0.3 nM, and the IC50 of JBS2572 was 2 nM. The time-dependency of the complex reduction was similar for both peptides. After two hours of incubation in the presence of 100 nM JBS2572 or JBS3216, the C4BP/PS complex was reduced to 60% and 50%, respectively. In addition, binding of biotinylated JBS2572 to Protein S was inhibited by C4BP in the LANCE IC50 assay. Pull-down experiments where JBS2697 was coupled to streptavidin sepharose and incubated for one hour at room temperature with (a) Protein S (1.6 pmol) (b) C4BP (8.5 pmol) and (c) Protein S (1.6 pmol)+C4BP (8.5 pmol) supported the results from the modified LANCE IC50 assay.
smiles,measurement,setting,value
CC(=O)N[C@H](C(=O)NCC(=O)N[C@@H](CC(C)C)C(=O)N[C@H](C(=O)N[C@@H](CO)C(=O)N[C@@H](C)C(=O)NCC(=O)N[C@@H](Cc1c[nH]c2ccccc12)C(=O)N[C@@H](Cc1ccc(O)cc1)C(=O)N[C@@H](CC(=O)O)C(=O)N[C@@H](Cc1ccc(O)cc1)C(=O)N[C@@H](CC(N)=O)C(=O)N[C@@H](Cc1ccccc1)C(=O)N[C@@H](CC(=O)O)C(=O)N[C@@H](Cc1c[nH]cn1)C(=O)N[C@@H](Cc1ccc(O)cc1)C(=O)N[C@@H](CCCNC(=N)N)C(=O)N[C@@H](CCC(=O)O)C(=O)N[C@@H](Cc1ccccc1)C(=O)N[C@H](C(N)=O)[C@@H](C)O)C(C)C)[C@@H](C)O [JBS2572] (Ac-TGLVSAGWYDYNFDHYREFT-NH2),increase of activity in the CAT-assay compared to JBS2512,[1]; His to Leu substitution at position 3,1.6 fold
same,PS/APC-dependent thrombin generation in hemophilic plasma,[1]; hemophilic plasma,improved
same,IC50,"[2]; peptide added to preformed C4BP/PS complex, TR-FRET, read-out: IC50 of dissociation of preformed C4BP/PS complex",2 nM
same,C4BP/PS complex reduced to,"[2]; two hours of incubation, 100 nM peptide",60%
